In US8008303B2, “Biphenyl derivatives and their use in treating hepatitis C” (AstraZeneca AB, priority 2005, dated 2011) one finds IC50 and TD50 data, which are given here for 18 compounds.

Read-outs that look alike come from different tables or passages of the source.

Data set [1] deals with HCV replicon cells Huh 9B. Briefly: HCV replicon assay (luciferase readout). The data set is classed as cell-based. The method in brief:
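Compounds, made up at twice final strength (final DMSO 1%), were added to subgenomic replicon cells one day after plating. Incubation then ran 72 h at 37 °C, 5% CO2, without G418. Replication was quantified as firefly luciferase luminescence in lysed cells, with cytotoxicity assessed on a duplicate clear plate.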
In general terms: In antiviral work, replicon cells carry a viral genome segment that copies itself.

In data set [2] the test system is HCV replicon cells Huh 9B. The data set is classed as cell-based.
[3] abbreviates: Hepatitis C virus, 72 h, concentration reducing replicon level (luciferase activity) by 50% vs untreated cell control, 72 h incubation.
[4] abbreviates: concentration reducing total cell area by 50% relative to DMSO controls, methylene blue, absorbance 620 nm, 72 h incubation.

One may read the IC50 as the concentration needed to halve the response being measured. In turn, `Cc1ccc(C(=O)Nc2ccc(N3CCOCC3)cc2)cc1-c1ccc(C(=O)NCCN2CCCCC2)cc1` [Example 6, 6-Methyl-biphenyl-3,4′-dicarboxylic acid 3-[(4-morpholin-4-yl-phenyl)-amide] 4′-[(2-piperidin-1-yl-ethyl)-amide]] had an IC50 in data set [1] of 1000 to 5000 nM. In addition, the TD50 entry in data set [2] was “* (key: * < 50 μM; ** > 50 μM)”.

For `Cc1ccc(C(=O)Nc2ccc(N3CCOCC3)cc2)cc1-c1ccc(C(=O)Nc2ccc3ncsc3c2)cc1` [Example 46, 6-Methyl-biphenyl-3,4′-dicarboxylic acid 4′-benzothiazol-6-ylamide 3-[(4-morpholin-4-yl-phenyl)-amide]], the IC50 in data set [1] was above 5000 nM. The TD50 result in data set [2] is recorded as “** (key: * < 50 μM; ** > 50 μM)”.

Regarding `CCC1(c2ccc(NC(=O)c3ccc(C)c(-c4ccc(C(=O)Nc5ccc(CN6CCS(=O)(=O)CC6)cc5)cc4)c3)cc2)CCC(=O)NC1=O` (stereo not drawn) [Example 138, 6-Methyl-biphenyl-3,4′-dicarboxylic acid 4′-{[4-(1,1-dioxo-1lambda*6*-thiomorpholin-4-ylmethyl)-phenyl]-amide} 3-{[4-(3-ethyl-2,6-dioxo-piperidin-3-yl)-phenyl]-amide}], in data set [1], the IC50 was below 1000 nM. In addition, the TD50 entry in data set [2] was “* (key: * < 50 μM; ** > 50 μM)”.

For the compound `Cc1ccc(NC(=O)C2CCCCC2)cc1-c1ccc(C(=O)Nc2ccc(CN3CCCC3)cc2)cc1` [Example 227, 5′-(Cyclohexanecarbonyl-amino)-2′-methyl-biphenyl-4-carboxylic acid (4-pyrrolidin-1-ylmethyl-phenyl)-amide], the IC50 in data set [1] (setting [3]) was in the range of 1000 to 5000 nM. Further, the TD50 result in data set [2] (setting [4]) is recorded as “* (* < 50 μM)”.

As for `Cc1ccc(C(=O)Nc2ccc(C(=O)N3CCCCC3)cc2)cc1-c1ccc(C(=O)Nc2ccc(CN3CCS(=O)(=O)CC3)cc2)cc1` [Example 144, 6-Methyl-biphenyl-3,4′-dicarboxylic acid 4′-{[4-(1,1-dioxo-1lambda*6*-thiomorpholin-4-ylmethyl)-phenyl]-amide} 3-{[4-(piperidine-1-carbonyl) -phenyl]-amide}], the IC50 in data set [1] fell in the range of 1000 to 5000 nM. Moreover, the TD50 result in data set [2] is recorded as “* (key: * < 50 μM; ** > 50 μM)”.

`Cc1ccc(NC(=O)c2ccco2)cc1-c1ccc(C(=O)Nc2ccc(N3CCOCC3)cc2)cc1` [Example 18, Furan-2-carboxylic acid [6-methyl-4′-(4-morpholin-4-yl-phenylcarbamoyl)-biphenyl-3-yl]-amide] showed an IC50 in data set [1] (setting [3]) of 1000 to 5000 nM. Also, the TD50 entry in data set [2] (setting [4]) is reported as “* (* < 50 μM)”.

As for `COc1cccc(NC(=O)c2cccc(-c3ccc(C(=O)Nc4ccc(N5CCOCC5)cc4)cc3C)c2)c1` [Example 62, 2′-Methyl-biphenyl-3,4′-dicarboxylic acid 3-[(3-methoxy-phenyl)-amide] 4′-[(4-morpholin-4-yl-phenyl)-amide]], in data set [1], the IC50 was below 1000 nM. For the same compound, the TD50 result in data set [2] is on record as “* (key: * < 50 μM; ** > 50 μM)”.

With `Cc1ccc(C(=O)Nc2ccc(N3CCOCC3)cc2)cc1-c1ccc(C(=O)Nc2ccc(C(=O)N(C)C)cc2)cc1` [Example 70, 6-Methyl-biphenyl-3,4′-dicarboxylic acid 4′-[(4-dimethylcarbamoyl-phenyl)-amide] 3-[(4-morpholin-4-yl-phenyl)-amide]], in data set [1], the IC50 is 1000 to 5000 nM. Moreover, in data set [2], the TD50 result was “* (key: * < 50 μM; ** > 50 μM)”.

Take `Cc1ccc(CNc2cccc(Br)c2)cc1-c1ccc(C(=O)Nc2ccc(CN3CCS(=O)(=O)CC3)cc2)cc1` [Example 198, 5′-[(3-Bromo-phenylamino)-methyl]-2′-methyl-biphenyl-4-carboxylic acid [4-(1,1-dioxo-1lambda*6*-thiomorpholin-4-ylmethyl)-phenyl]-amide]: the IC50 in data set [1] (setting [3]) was 1000 to 5000 nM. Moreover, in data set [2] (setting [4]), the TD50 result is on record as “* (* < 50 μM)”.

`Cc1ccc(C(=O)Nc2ccc(N3CCOCC3)cc2)cc1-c1ccc(CNC(CO)Cc2cnc[nH]2)cc1` (stereo not drawn) [Example 101, 4′-{[1-Hydroxymethyl-2-(3H-imidazol-4-yl)-ethylamino]-methyl}-6-methyl-biphenyl-3-carboxylic acid (4-morpholin-4-yl-phenyl)-amide] registered an IC50 in data set [1] (setting [3]) below 1000 nM. Also, the TD50 entry in data set [2] (setting [4]) is listed as “* (* < 50 μM)”.

In the case of `O=C(Nc1ccc(CN2CCS(=O)(=O)CC2)cc1)c1ccc(-c2cc(NC(=O)C3CCCCC3)ccc2Cl)cc1` [Example 193, 5′-(Cyclohexanecarbonyl-amino)-2′-chloro-biphenyl-4-carboxylic acid [4-(1,1-dioxo-1lambda*6*-thiomorpholin-4-ylmethyl)-phenyl]-amide], in data set [1] (setting [3]), the IC50 was below 1000 nM. Moreover, the TD50 result in data set [2] (setting [4]) was “* (* < 50 μM)”.

In data set [1], `Cc1ccc(C(=O)Nc2ccc(N3CCOCC3)cc2)cc1-c1ccc(C(=O)Nc2cccc(-c3ccn(C)n3)c2)cc1` [Example 26, 6-Methyl-biphenyl-3,4′-dicarboxylic acid 4′-{[3-(1-methyl-1H-pyrazol-3-yl)-phenyl]-amide} 3-[(4-morpholin-4-yl-phenyl)-amide]] returned an IC50 above 5000 nM. In data set [2], the TD50 entry was “** (key: * < 50 μM; ** > 50 μM)”.

In data set [1], `Cc1ccc(C(=O)Nc2ccc(N3CCOCC3)cc2)cc1-c1ccc(C(=O)Nc2cccnc2)cc1` [Example 36, 6-Methyl-biphenyl-3,4′-dicarboxylic acid 3-[(4-morpholin-4-yl-phenyl)-amide] 4′-pyridin-3-ylamide] gave an IC50 of 1000 to 5000 nM. Also, in data set [2], the TD50 entry is given as “* (key: * < 50 μM; ** > 50 μM)”.

As to `Cc1ccc(C(=O)Nc2ccc(N3CCOCC3)cc2)cc1-c1ccc(C(=O)Nc2ccc3[nH]c(C(F)(F)F)nc3c2)cc1` [Example 38, 6-Methyl-biphenyl-3,4′-dicarboxylic acid 3-[(4-morpholin-4-yl-phenyl)-amide] 4′-[(2-trifluoromethyl-1H-benzoimidazol-5-yl)-amide]], in data set [1], the IC50 was 1000 to 5000 nM. For the same compound, the TD50 entry in data set [2] is given as “** (key: * < 50 μM; ** > 50 μM)”.

Take `Cc1ccc(C(=O)Nc2ccc(N3CCOCC3)cc2)cc1-c1ccc(C(=O)Nc2cccc(OCc3ccccc3)c2)cc1` [Example 8, 6-Methyl-biphenyl-3,4′-dicarboxylic acid 4′-[(3-benzyloxy-phenyl)-amide] 3-[(4-morpholin-4-yl-phenyl)-amide]]: the IC50 in data set [1] fell in the range of 1000 to 5000 nM. Besides, the TD50 entry in data set [2] was “** (key: * < 50 μM; ** > 50 μM)”.

Consider `CCNC(=O)Nc1ccc(C)c(-c2ccc(C(=O)Nc3ccc(CN4CCS(=O)(=O)CC4)cc3)cc2)c1` [Example 188, 5′-(3-Ethyl-ureido)-2′-methyl-biphenyl-4-carboxylic acid [4-(1,1-dioxo-1lambda*6*-thiomorpholin-4-ylmethyl)-phenyl]-amide], for which, in data set [1] (setting [3]), the IC50 was below 1000 nM. Moreover, in data set [2] (setting [4]), the TD50 result is “* (* < 50 μM)”.

In data set [1], `Cc1ccc(C(=O)Nc2ccc(N3CCOCC3)cc2)cc1-c1ccc(C(=O)Nc2cccc(C(F)(F)F)c2)cc1` [Example 23, 6-Methyl-biphenyl-3,4′-dicarboxylic acid 3-[(4-morpholin-4-yl-phenyl)-amide] 4′-[(3-trifluoromethyl-phenyl)-amide]] came in with an IC50 of 1000 to 5000 nM. Besides, the TD50 entry in data set [2] is listed as “* (key: * < 50 μM; ** > 50 μM)”.

In the case of `Cc1ccc(CNc2ccc3cn[nH]c3c2)cc1-c1ccc(C(=O)Nc2ccc(CN3CCS(=O)(=O)CC3)cc2)cc1` [Example 197, 5′-[(1H-Indazol-6-ylamino)-methyl]-2′-methyl-biphenyl-4-carboxylic acid [4-(1,1-dioxo-1lambda*6*-thiomorpholin-4-ylmethyl)-phenyl]-amide], the IC50 in data set [1] (setting [3]) is below 1000 nM. Moreover, the TD50 result in data set [2] (setting [4]) is “** (** > 50 μM)”.
